Source: patent US20220332701A1, “HETEROCYCLIC COMPOUNDS AS BCR-ABL INHIBITORS” (ASCENTAGE PHARMA (SUZHOU) CO., LTD., priority 2019, published 2022)

What was measured:
[1] = biological target: BaF3(WT) (Homo sapiens, UniProt P00519); assay: WST (CCK-8) anti-proliferation assay, BaF3 WT cells; conditions: read-out: BaF3(WT); anti-proliferative IC50, 72 h treatment, CCK-8, BaF3 WT
Description: (§1) The anti-proliferative effect of representative Compounds of the Disclosure was determined by a water-soluble tetrazolium (WST)-based assay using Cell Counting Kit-8 (CCK-8). Cells were seeded in 96-well plates and treated with different concentrations of test articles for 72 h. Each treatment was tested in triplicates. Briefly, a series of 9 concentrations were chosen for each test article and added at 100 μl/well into a 96-well plate. Each concentration was tested in triplicates. 100 μl of diluent was added into 3-6 wells in the same plate for cell control group, and another set of 3-6 wells was used as a blank control.
(§2) In each well, 100 μl of cell suspension (containing optimal cell numbers, which creates approximately 100% confluence of cells in control wells based on by the absorbance (OD) value) was dispensed into the same 96-well plate except for the blank well. The plate was then cultured at 37° C. in an incubator in an atmosphere with 5% CO2 for 72 h. At the end of treatments, 20 μl/well of CCK-8 reagent was directly added to each wells. The plate was then incubated at 37° C. in an incubator in an atmosphere with 5% CO2 for 2-4 hour.
(§3) The cells viability was calculated using the mean OD value of triplicated wells following the equation below: (OD sample−OD blank)/(OD cell control−OD blank)×100 IC50 values were calculated with Graphpad Prism 6.0 software using nonlinear regression (curve fitting) type data analysis.

[2] = biological target: BaF3(T315I) (Homo sapiens, UniProt P00519, T315I, cells depend on it); assay: WST (CCK-8) anti-proliferation assay, BaF3 T315I cells; conditions: read-out: BaF3(T315I); anti-proliferative IC50, 72 h treatment, CCK-8, BaF3 T315I
Description: as §1, §2, §3

SMILES | GI50 [1] [nM] | GI50 [2] [nM]
CC1(C)C(=O)N(CCO)c2cc(C(=O)Nc3ccc(OC(F)(F)Cl)cc3)cc(-c3ccn[nH]3)c21 [V-6, N-(4-(chlorodifluoromethoxy)phenyl)-1-(2-hydroxyethyl)-3,3-dimethyl-2-oxo-4-(1H-pyrazol-5-yl)indoline-6-carboxamide] | 364 | 2860
CC1c2cc(C(=O)Nc3ccc(OC(F)(F)Cl)cc3)cc(-c3ccn[nH]3)c2N(C(C)C)C1CO (stereo not drawn) [VII-19, N-(4-(chlorodifluoromethoxy)phenyl)-2-(hydroxymethyl)-1-isopropyl-3-methyl-7-(1H-pyrazol-5-yl)indoline-5-carboxamide] | 133 | 1090
CC(C)N1c2c(cc(C(=O)Nc3ccc(OC(F)(F)Cl)cc3)cc2-c2ccn[nH]2)CC1CN(C)C (stereo not drawn) [VII-13, N-(4-(chlorodifluoromethoxy)phenyl)-2-((dimethylamino)methyl)-1-isopropyl-7-(1H-pyrazol-5-yl)indoline-5-carboxamide] | 266 | 1410
CC1CN(C(C)C)c2c(cc(C(=O)Nc3ccc(OC(F)(F)Cl)cc3)cc2-c2ccn[nH]2)O1 (stereo not drawn) [IX-4, N-(4-(chlorodifluoromethoxy)phenyl)-4-isopropyl-2-methyl-5-(1H-pyrazol-5-yl)-3,4-dihydro-2H-benzo[b][1,4]oxazine-7-carboxamide] | 33 | 3110
CC(C)n1ccc2cc(C(=O)Nc3ccc(OC(F)(F)Cl)cc3)cc(-c3ccn[nH]3)c21 [XII-1, N-(4-(chlorodifluoromethoxy)phenyl)-1-isopropyl-7-(1H-pyrazol-5-yl)-1H-indole-5-carboxamide] | 115 | 654
CC(C)N1C(=O)C(C)(C)c2cc(C(=O)Nc3ccc(OC(F)(F)Cl)cc3)cc(-c3ccn[nH]3)c21 [VIII-3, N-(4-(chlorodifluoromethoxy)phenyl)-1-isopropyl-3,3-dimethyl-2-oxo-7-(1H-pyrazol-5-yl)indoline-5-carboxamide] | 313 | 1010
CC(C)N1c2c(cc(C(=O)Nc3ccc(OC(F)(F)Cl)cc3)cc2-c2ccn[nH]2)CC1C(=O)N1CCS(=O)(=O)CC1 (stereo not drawn) [VII-31, N-(4-(chlorodifluoromethoxy)phenyl)-2-(1,1-dioxidothiomorpholine-4-carbonyl)-1-isopropyl-7-(1H-pyrazol-5-yl)indoline-5-carboxamide] | 78 | 423
CS(=O)(=O)N1CCc2cc(C(=O)Nc3ccc(OC(F)(F)Cl)cc3)cc(-c3ccn[nH]3)c21 [VII-9, N-(4-(chlorodifluoromethoxy)phenyl)-1-(methylsulfonyl)-7-(1H-pyrazol-5-yl) indoline-5-carboxamide] | 403 | 4960
CN(C)CCN1C(=O)C(C)(C)c2c(-c3ccn[nH]3)cc(C(=O)Nc3ccc(OC(F)(F)Cl)cc3)cc21 [V-7, N-(4-(chlorodifluoromethoxy)phenyl)-1-(2-(dimethylamino)ethyl)-3,3-dimethyl-2-oxo-4-(1H-pyrazol-5-yl)indoline-6-carboxamide] | 324 | 1540
CC(C)N1CCc2cc(C(=O)Nc3ccc(SC(F)(F)F)cc3)cc(-c3ccn[nH]3)c21 [VII-45, 1-isopropyl-7-(1H-pyrazol-5-yl)-N-(4-((trifluoromethyl)thio)phenyl)indoline-5-carboxamide] | 18 | 474
CN1CCc2cc(C(=O)Nc3ccc(SC(F)(F)F)cc3)cc(-c3ccn[nH]3)c21 [VII-44, 1-methyl-7-(1H-pyrazol-5-yl)-N-(4-((trifluoromethyl)thio)phenyl)indoline-5-carboxamide] | 66 | 666
Cc1cn(C(C)C)c2c(-c3cncnc3)cc(C(=O)Nc3ccc(OC(F)(F)Cl)cc3)cc12 [XII-5, N-(4-(chlorodifluoromethoxy)phenyl)-1-isopropyl-3-methyl-7-(pyrimidin-5-yl)-1H-indole-5-carboxamide] | 103 | 3180
